Reference: patent publication US4542021A, “Antitumor compositions for non-injection administration” (Yamasa Shoyu Kabushiki Kaisha, priority 1978, dated 1985)
Structures can show the parent of a compound that is named as a salt.

Key:
L1210 leukemia = assay: Therapeutic test on L1210 leukemia (oral, once a day); type: in vivo, BDF1 mice; settings: Mus musculus, oral, read-out: % ILS (increase in life span); for ILS at 100 mg/kg/day / ILS at 200 mg/kg/day / ILS at 400 mg/kg/day: L1210, 720 h, > means some mice survived the test period (30 days); for ILS at 12.5 mg/kg/day / ILS at 25 mg/kg/day / ILS at 50 mg/kg/day / ILS at 6.25 mg/kg/day: L1210
Description: The L1210 leukemic cell suspension (1×10^5 cells/0.2 ml) was implanted intraperitoneally in BDF1 mice (males, 18 to 22 g, females, 16 to 20 g) (7 mice per group). From 24 hours after the implantation to the 5th day thereafter, the predetermined doses of the compounds to be tested were orally administered to the mice consecutively once a day. The compounds to be tested were dissolved or suspended in a phosphate-bufferedsalt solution (PBS) containing 0.5% carboxymethylcellulose, and given at a dose rate of 0.1 ml per 10 g of each mouse's body weight. To a control group, only the same solvent as used for the dissolution of the compounds to be tested was administered in the same way. The mean survival times (MST) for each group were calculated, and the corresponding increase in life span (%ILS) was obtained in accordance with the following formula, the results of which are shown in Table 1. [formula]

[1] = Acute toxicity test, oral (Test Example 5); set-up: species or system ICR-JCL mice; settings: mouse, in vivo, neutralized ester, male mice, 14th day
Description: An ara-CMP ester was neutralized and dissolved in saline containing 0.5% of carboxymethylcellulose, and the resulting solution was orally administered to ICR-JCL mice (males, 24 to 26 g) in a dose of 0.2 ml per 10 g of each mouse's body weight.

L1210 leukemic cells [2] = assay: Experimental tumor proliferation model in the lymph nodes, once a day for 6 days; type: in vivo, BDF1 mice
Description: (§1) L1210 leukemic cells (1×10^6 cells/0.05 ml) were implanted to the right inner-thigh hypoderms of BDF1 mice (males, 18 to 22 g). From one day after the transplantation, the compounds to be tested were administered intraperitoneally or orally to the mice once a day consecutively for 6 days. The compounds being tested were dissolved in a phosphate-buffered salt solution (PBS) containing 0.5% carboxymethylcellulose to a suitable concentration, and administered to the mice at a dose rate of 0.1 ml per 10 g of each mouse's body weight. The increases in life span (%ILS) were calculated similarly as in Test Example 1.

L1210 leukemic cells [3] = assay: Experimental tumor proliferation model in the lymph nodes, single administration on sixth day; type: in vivo, BDF1 mice; settings: once on sixth day
Description: as §1
Furthermore, in a similar manner, each of the test compounds was administered only once on the sixth day after implantation.

[4] = Acute toxicity test, intraperitoneal (Test Example 4); set-up: species or system ICR-JCL mice; settings: mouse, in vivo; ip, male mice, 7th day; reliability limit 95% in parentheses
Description: The C18-ara-CMP ester dissolved in saline was administered intraperitoneally to ICR-JCL mice (males, 24 to 26 g) at a dose rate of 0.2 ml per 10 g of each mouse's body weight. The LD50 value obtained on the 7th day was;

[5] = Acute toxicity test, oral (Test Example 4); set-up: species or system ICR-JCL mice; settings: mouse, in vivo, male mice, observed 7 days, reliability limit 95% in parentheses
Description: The C18-ara-CMP ester was dissolved in saline containing 0.5% carboxymethylcellulose, and given orally to ICR-JCL mice (males, 24 to 26 g) at a dose rate of 0.2 ml per 10 g of each mouse's body weight. […] The LD50 value was;

B16 melanoma = assay: Effectiveness against B16 melanoma (oral, 3 times a week); type: in vivo, BDF1 mice; set-up: Mean survival time (MST ± SE): unit not given here
Description: The B16 melanoma cells (1×10^6 cells) were implanted to the right side-abdominal hypoderms of BDF1 mice (male, 18 to 22 g). From the 13th day after the implantation to death the compounds to be tested were administered orally 3 times a week. The compounds to be tested were dissolved in a phosphate-buffered salt solution (PBS) containing 0.5% carboxymethyl-cellulose to a suitable concentration, and given to the mice at a dose rate of 0.1 ml per 10 g of each mouse's body weight. The increases in life span (%ILS) were calculated in accordance with the same formula as described in Test Example 1.

[6] = in combination with a cytidinedeaminase inhibitor such as tetrahydrouridine; cited from earlier work
[7] = 50 mg/kg, * level of significance at 0.05% or lower

| SMILES | ILS at 100 mg/kg/day (L1210 leukemia) [%] | ILS at 200 mg/kg/day (L1210 leukemia) [%] | ILS at 400 mg/kg/day (L1210 leukemia) [%] | ILS at 12.5 mg/kg/day (L1210 leukemia) [%] | ILS at 25 mg/kg/day (L1210 leukemia) [%] | ILS at 50 mg/kg/day (L1210 leukemia) [%] | LD50 at 336 h [1] [mg/kg] | ILS at 6.25 mg/kg/day (L1210 leukemia) [%] | Increase in life span (% ILS) (B16 melanoma; 100 mg/kg) [%] | Mean survival time (MST ± SE) (B16 melanoma; 100 mg/kg) | also measured |
| --- | --- | --- | --- | --- | --- | --- | --- | --- | --- | --- | --- |
| CCCCCCCCCCCCCCCCOP(=O)(O)OC[C@H]1O[C@@H](n2ccc(N)nc2=O)[C@@H](O)[C@@H]1O [C16-ara-CMP ester, ara-CMP-cetyl ester] | 88 | 137 | > 227 | 19 | 30 | 73 | 2190 | – | – | – | – |
| CCCCCCCCCCCCCCCCCCOP(=O)(O)OC[C@H]1O[C@@H](n2ccc(N)nc2=O)[C@@H](O)[C@@H]1O [C18-ara-CMP ester, ara-CMP-stearyl ester] | > 200 | 53 | -7 | 52 | 69 | 114 | 1050 | 46 | 17 | 25.8 ± 1.98 | Increase in life span (% ILS) (L1210 leukemic cells [2]; ip, 25 mg/kg/day): 152%; Mean survival time (MST ± SE) (L1210 leukemic cells [2]; ip, 25 mg/kg/day): 17.4 ± 0.40; Increase in life span (% ILS) (L1210 leukemic cells [2]; ip, 50 mg/kg/day): 193%; Mean survival time (MST ± SE) (L1210 leukemic cells [2]; ip, 50 mg/kg/day): 20.2 ± 0.53; Increase in life span (% ILS) (L1210 leukemic cells [2]; po, 50 mg/kg/day): 165%; Mean survival time (MST ± SE) (L1210 leukemic cells [2]; po, 50 mg/kg/day): 18.3 ± 0.62; Increase in life span (% ILS) (L1210 leukemic cells [2]; po, 100 mg/kg/day): 188%; Mean survival time (MST ± SE) (L1210 leukemic cells [2]; po, 100 mg/kg/day): 19.9 ± 0.48; Increase in life span (% ILS) (L1210 leukemic cells [3]; po, 250 mg/kg): 92%; Mean survival time (MST ± SE) (L1210 leukemic cells [3]; po, 250 mg/kg): 14.0 ± 0.53; Increase in life span (% ILS) (L1210 leukemic cells [3]; po, 500 mg/kg): 137%; Mean survival time (MST ± SE) (L1210 leukemic cells [3]; po, 500 mg/kg): 17.3 ± 0.49; LD50 at 168 h [4]: 137 mg/kg; LD50 at 168 h [5]: 1400 mg/kg; Mean survival time (MST ± SE) (B16 melanoma; 50 mg/kg): 30.0 ± 1.30; Increase in life span (% ILS) (B16 melanoma; [7]): 36%; Increase in life span (% ILS) (B16 melanoma; 200 mg/kg): 22%; Mean survival time (MST ± SE) (B16 melanoma; 200 mg/kg): 26.8 ± 2.20 |
| CCCCCCCC/C=C\CCCCCCCCOP(=O)(O)OC[C@H]1O[C@@H](n2ccc(N)nc2=O)[C@@H](O)[C@@H]1O [C18-1-ara-CMP ester, ara-CMP-oleyl ester] | 109 | 120 | > 159 | 39 | 54 | 81 | 3750 | 20 | – | – | – |
| O=c1[nH]cc(F)c(=O)[nH]1 [5-fluorouracil] | – | – | – | – | – | – | – | – | -11 | 19.6 ± 0.98 | Increase in life span (% ILS) (B16 melanoma; 25 mg/kg): 0%; Mean survival time (MST ± SE) (B16 melanoma; 25 mg/kg): 22.0 ± 1.45; Mean survival time (MST ± SE) (B16 melanoma; 50 mg/kg): 25.0 ± 2.26; Increase in life span (% ILS) (B16 melanoma; [7]): 14% |
| CCCCCCCCCCCCCCCCCCCCOP(=O)(O)OC[C@H]1O[C@@H](n2ccc(N)nc2=O)[C@@H](O)[C@@H]1O [C20-ara-CMP ester, ara-CMP-eicosyl ester] | 126 | > 199 | – | 39 | 60 | 90 | 2720 | 19 | – | – | – |
| Nc1ccn([C@@H]2O[C@H](CO)[C@@H](O)[C@@H]2O)c(=O)n1 [ara-C (hydrochloride), 1-β-D-arabinofuranosyl cytosine, reference compound] | 22 | 34 | 67 | – | – | – | – | – | 22 | 26.8 ± 1.50 | Increase in life span (% ILS) (L1210 leukemic cells [2]; ip, 50 mg/kg/day): 101%; Mean survival time (MST ± SE) (L1210 leukemic cells [2]; ip, 50 mg/kg/day): 13.9 ± 0.59; Increase in life span (% ILS) (L1210 leukemic cells [2]; ip, 100 mg/kg/day): 110%; Mean survival time (MST ± SE) (L1210 leukemic cells [2]; ip, 100 mg/kg/day): 14.5 ± 0.62; Increase in life span (% ILS) (L1210 leukemic cells [3]; ip, 250 mg/kg): 36%; Mean survival time (MST ± SE) (L1210 leukemic cells [3]; ip, 250 mg/kg): 9.9 ± 0.13; Increase in life span (% ILS) (L1210 leukemic cells [3]; ip, 500 mg/kg): 49%; Mean survival time (MST ± SE) (L1210 leukemic cells [3]; ip, 500 mg/kg): 10.9 ± 0.23; Increase in life span (% ILS) (B16 melanoma; 200 mg/kg): -5%; Mean survival time (MST ± SE) (B16 melanoma; 200 mg/kg): 21.0 ± 1.76; Increase in life span (% ILS) (B16 melanoma; 400 mg/kg): 1%; Mean survival time (MST ± SE) (B16 melanoma; 400 mg/kg): 22.2 ± 2.82 |
| Nc1ccn([C@@H]2O[C@H](CO)[C@@H](O)[C@@H]2O)c(=O)n1 [ara-C, 1-β-D-arabinofuranosyl cytosine] | – | – | – | – | – | – | – | – | – | – | effectiveness of oral administration [6]: effective in combination with a cytidinedeaminase inhibitor such as tetrahydrouridine |
